{"source": "paper PMC6688997", "about": "(Nature Communications, 2019)", "key": {"[1]": {"molecular_target": "T1, SRPK2 (Homo sapiens, UniProt P78362)", "T1 construct": "purchased Carna Biosciences", "test": "Kinase assay, ATP Km", "assay_type": "biochemical"}, "[2]": {"molecular_target": "DYRK1B (Homo sapiens, UniProt Q9Y463)", "sequence (Q9Y463 whole entry)": "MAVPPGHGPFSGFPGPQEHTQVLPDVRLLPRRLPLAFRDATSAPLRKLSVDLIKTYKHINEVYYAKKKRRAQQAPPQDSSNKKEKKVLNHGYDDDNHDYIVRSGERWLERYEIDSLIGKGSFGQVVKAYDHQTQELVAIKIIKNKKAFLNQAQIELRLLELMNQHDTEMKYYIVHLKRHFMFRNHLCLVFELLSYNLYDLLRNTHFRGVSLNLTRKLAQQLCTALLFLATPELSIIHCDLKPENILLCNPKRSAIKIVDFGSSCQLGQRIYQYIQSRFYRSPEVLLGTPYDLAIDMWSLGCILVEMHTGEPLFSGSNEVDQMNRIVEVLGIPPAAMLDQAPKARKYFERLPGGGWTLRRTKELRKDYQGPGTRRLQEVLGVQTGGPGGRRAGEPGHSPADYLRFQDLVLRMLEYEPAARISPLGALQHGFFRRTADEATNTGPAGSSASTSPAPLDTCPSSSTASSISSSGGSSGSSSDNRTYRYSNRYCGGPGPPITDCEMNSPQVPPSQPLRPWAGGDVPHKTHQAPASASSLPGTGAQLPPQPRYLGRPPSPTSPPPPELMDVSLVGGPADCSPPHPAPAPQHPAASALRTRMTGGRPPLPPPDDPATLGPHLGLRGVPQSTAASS", "test": "Kinase assay, ATP Km", "assay_type": "biochemical"}, "[3]": {"molecular_target": "T2, RSK4 (Homo sapiens, UniProt Q9UK32)", "T2 construct": "purchased Carna Biosciences", "T2 sequence (Q9UK32 whole entry)": "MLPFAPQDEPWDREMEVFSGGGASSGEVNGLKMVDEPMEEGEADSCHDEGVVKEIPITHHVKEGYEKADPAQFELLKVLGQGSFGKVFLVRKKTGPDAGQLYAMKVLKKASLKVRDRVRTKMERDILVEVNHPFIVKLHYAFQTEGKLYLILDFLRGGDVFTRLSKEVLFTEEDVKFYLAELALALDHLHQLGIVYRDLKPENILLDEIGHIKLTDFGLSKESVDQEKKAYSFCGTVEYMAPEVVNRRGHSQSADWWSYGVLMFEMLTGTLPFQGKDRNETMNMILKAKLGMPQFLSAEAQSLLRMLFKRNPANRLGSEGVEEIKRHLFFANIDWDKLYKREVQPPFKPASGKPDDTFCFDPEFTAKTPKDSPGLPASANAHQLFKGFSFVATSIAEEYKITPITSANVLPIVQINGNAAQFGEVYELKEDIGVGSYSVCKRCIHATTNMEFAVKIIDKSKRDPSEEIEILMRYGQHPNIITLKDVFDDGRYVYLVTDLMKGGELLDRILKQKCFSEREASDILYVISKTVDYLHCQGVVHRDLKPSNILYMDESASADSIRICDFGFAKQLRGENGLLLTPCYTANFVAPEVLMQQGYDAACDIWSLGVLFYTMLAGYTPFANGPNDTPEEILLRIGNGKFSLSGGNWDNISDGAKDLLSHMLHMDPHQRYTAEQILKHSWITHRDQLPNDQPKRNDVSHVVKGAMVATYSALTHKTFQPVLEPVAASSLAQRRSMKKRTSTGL", "test": "Kinase assay, ATP Km", "assay_type": "biochemical"}, "[4]": {"molecular_target": "T3, MRCKα (Homo sapiens, UniProt Q5VT25)", "T3 construct": "purchased Carna Biosciences", "test": "Kinase assay, ATP Km", "assay_type": "biochemical"}, "[5]": {"molecular_target": "T4, PDHK4 (Homo sapiens, UniProt Q16654)", "T4 construct": "purchased Carna Biosciences", "T4 sequence (Q16654 whole entry)": "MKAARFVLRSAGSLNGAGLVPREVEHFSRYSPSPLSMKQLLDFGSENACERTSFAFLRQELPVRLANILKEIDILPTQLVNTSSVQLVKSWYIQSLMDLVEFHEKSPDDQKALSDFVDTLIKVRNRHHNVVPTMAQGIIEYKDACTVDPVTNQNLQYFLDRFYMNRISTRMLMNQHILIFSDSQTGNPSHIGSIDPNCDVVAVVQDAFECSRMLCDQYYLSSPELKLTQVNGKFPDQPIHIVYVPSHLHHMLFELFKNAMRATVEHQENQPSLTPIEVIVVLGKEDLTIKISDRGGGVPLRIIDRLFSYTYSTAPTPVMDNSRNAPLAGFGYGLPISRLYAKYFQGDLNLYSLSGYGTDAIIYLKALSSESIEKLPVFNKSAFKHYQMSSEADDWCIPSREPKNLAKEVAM", "test": "Kinase assay, ATP Km", "assay_type": "biochemical"}, "[6]": {"molecular_target": "T5, MNK1 (Homo sapiens, UniProt Q9BUB5)", "T5 construct": "purchased Carna Biosciences", "T5 sequence (Q9BUB5 whole entry)": "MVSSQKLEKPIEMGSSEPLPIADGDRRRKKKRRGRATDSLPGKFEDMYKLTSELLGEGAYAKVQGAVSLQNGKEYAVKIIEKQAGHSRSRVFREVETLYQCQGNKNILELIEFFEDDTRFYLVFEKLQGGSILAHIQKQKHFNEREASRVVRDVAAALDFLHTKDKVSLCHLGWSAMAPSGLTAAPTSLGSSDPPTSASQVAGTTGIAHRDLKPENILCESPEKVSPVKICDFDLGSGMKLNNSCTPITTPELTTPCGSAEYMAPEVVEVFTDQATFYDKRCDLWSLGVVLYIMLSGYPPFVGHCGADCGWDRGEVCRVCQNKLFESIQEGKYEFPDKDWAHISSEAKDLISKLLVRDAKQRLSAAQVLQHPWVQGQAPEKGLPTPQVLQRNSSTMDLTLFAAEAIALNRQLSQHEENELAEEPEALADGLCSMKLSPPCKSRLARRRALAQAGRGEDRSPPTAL", "test": "Kinase assay, ATP Km", "assay_type": "biochemical"}, "[7]": {"molecular_target": "CDC2/CycB1 (Homo sapiens, UniProt P06493)", "sequence (P06493 whole entry)": "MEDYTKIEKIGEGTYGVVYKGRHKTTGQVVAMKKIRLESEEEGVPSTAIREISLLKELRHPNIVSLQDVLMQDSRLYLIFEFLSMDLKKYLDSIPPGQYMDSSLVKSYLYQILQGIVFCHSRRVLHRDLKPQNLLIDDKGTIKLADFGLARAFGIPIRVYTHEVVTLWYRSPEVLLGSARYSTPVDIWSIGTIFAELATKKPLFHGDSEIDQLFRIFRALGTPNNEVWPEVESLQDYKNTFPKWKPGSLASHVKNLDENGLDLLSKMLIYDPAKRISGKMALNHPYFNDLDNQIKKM", "sequence (P14635 whole entry partner)": "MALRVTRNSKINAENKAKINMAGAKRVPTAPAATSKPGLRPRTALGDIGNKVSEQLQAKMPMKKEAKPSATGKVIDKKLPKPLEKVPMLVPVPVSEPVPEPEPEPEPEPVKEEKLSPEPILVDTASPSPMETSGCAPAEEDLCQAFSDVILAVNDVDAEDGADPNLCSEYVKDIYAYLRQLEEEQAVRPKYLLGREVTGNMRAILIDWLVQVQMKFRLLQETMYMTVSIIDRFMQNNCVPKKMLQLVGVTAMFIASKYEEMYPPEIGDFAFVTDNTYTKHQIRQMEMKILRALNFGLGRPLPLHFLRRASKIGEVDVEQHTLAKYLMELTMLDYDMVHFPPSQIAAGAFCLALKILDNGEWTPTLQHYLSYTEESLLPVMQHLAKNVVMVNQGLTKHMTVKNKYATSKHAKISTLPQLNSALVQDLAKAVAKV", "test": "Kinase assay, ATP Km", "assay_type": "biochemical"}, "[8]": {"molecular_target": "PAK1 (Homo sapiens, UniProt Q13153)", "sequence (Q13153 whole entry)": "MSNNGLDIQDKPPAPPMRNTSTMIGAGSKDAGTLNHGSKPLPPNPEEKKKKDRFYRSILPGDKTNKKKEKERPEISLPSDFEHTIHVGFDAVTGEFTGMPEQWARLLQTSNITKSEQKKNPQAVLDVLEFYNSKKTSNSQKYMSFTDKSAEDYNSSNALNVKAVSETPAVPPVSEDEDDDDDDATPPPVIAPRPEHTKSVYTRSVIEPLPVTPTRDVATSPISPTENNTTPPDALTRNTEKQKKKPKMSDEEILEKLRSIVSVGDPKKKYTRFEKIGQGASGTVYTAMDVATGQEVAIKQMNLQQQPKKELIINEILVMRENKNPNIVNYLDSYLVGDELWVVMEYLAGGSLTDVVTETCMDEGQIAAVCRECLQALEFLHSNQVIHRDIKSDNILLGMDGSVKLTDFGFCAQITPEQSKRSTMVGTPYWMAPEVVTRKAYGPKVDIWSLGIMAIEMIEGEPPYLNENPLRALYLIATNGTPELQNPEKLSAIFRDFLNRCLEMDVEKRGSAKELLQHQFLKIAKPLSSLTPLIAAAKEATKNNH", "test": "Kinase assay, ATP Km", "assay_type": "biochemical"}, "[9]": {"molecular_target": "T6, SLK (Homo sapiens, UniProt Q9H2G2)", "T6 construct": "purchased Carna Biosciences", "T6 sequence (Q9H2G2 whole entry)": "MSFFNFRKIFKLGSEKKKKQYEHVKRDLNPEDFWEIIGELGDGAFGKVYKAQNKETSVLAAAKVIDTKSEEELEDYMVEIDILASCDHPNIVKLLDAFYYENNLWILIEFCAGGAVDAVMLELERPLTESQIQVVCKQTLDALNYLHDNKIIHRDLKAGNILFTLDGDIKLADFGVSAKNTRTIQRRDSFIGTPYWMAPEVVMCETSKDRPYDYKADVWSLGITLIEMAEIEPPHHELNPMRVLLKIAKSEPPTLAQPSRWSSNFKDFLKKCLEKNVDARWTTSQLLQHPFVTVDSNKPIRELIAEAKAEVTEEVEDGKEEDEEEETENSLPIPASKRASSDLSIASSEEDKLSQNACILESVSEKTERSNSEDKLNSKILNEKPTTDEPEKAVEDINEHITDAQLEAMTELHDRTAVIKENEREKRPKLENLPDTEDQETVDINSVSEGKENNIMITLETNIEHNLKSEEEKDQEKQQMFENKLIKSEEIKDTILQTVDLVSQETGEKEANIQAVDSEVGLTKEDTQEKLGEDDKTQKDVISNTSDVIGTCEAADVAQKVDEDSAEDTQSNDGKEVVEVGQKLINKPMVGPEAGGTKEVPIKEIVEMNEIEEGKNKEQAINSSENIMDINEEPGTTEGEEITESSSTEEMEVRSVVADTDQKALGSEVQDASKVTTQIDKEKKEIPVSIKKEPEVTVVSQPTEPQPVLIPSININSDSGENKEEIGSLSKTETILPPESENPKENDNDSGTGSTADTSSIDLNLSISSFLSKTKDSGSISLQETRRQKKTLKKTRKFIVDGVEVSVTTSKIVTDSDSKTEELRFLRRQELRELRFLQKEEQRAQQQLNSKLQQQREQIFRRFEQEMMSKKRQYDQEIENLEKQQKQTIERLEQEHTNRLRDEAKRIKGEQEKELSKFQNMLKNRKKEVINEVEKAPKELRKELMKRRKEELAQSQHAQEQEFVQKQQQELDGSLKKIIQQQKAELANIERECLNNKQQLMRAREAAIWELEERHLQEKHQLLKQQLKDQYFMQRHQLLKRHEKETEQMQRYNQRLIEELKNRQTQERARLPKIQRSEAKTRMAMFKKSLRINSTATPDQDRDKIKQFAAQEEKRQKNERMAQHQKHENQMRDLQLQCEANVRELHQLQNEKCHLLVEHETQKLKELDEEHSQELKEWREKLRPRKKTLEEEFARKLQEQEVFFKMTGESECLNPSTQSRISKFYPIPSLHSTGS", "test": "Kinase assay, ATP Km", "assay_type": "biochemical"}, "[10]": {"molecular_target": "T7, RET (Homo sapiens, UniProt P07949)", "T7 construct": "purchased Carna Biosciences", "test": "Kinase assay, ATP Km", "assay_type": "biochemical"}, "[11]": {"molecular_target": "CDK2/CycE1 (Homo sapiens, UniProt P24941)", "test": "Kinase assay, ATP Km", "assay_type": "biochemical"}, "[12]": {"test": "Body weight of Ba/F3-CD74-ROS1-WT xenograft mice", "assay_type": "in vivo, mouse", "settings": "for Body Weight Change(%) (average / SD): N 6"}}, "note": "Values joined by “and” are separate entries in the source; they are usually repeats but may differ in a detail not shown here. Identical values can stand only once."}
{"molecule": "C[C@@H](N)COc1ccc(-c2cnc3ccc(N[C@H](C)c4cccc(F)c4)nn23)cc1.O=C(O)CCCCC(=O)O", "note": "[DS-6051b]", "values": [{"measurement": "inhibition at 0.04 µM", "setting": "[1]", "result": 1.8, "unit": "%"}, {"measurement": "inhibition at 0.04 µM", "setting": "[2]", "result": -5.3, "unit": "%"}, {"measurement": "inhibition at 0.04 µM", "setting": "[3]", "result": 12.3, "unit": "%"}, {"measurement": "inhibition at 0.04 µM", "setting": "[4]", "result": -0.239, "unit": "%"}, {"measurement": "inhibition at 0.04 µM", "setting": "[5]", "result": 0.3, "unit": "%"}, {"measurement": "inhibition at 0.04 µM", "setting": "[6]", "result": 3.7, "unit": "%"}, {"measurement": "inhibition at 0.04 µM", "setting": "[7]", "result": 3.9, "unit": "%"}, {"measurement": "inhibition at 0.04 µM", "setting": "[8]", "result": 1.2, "unit": "%"}, {"measurement": "inhibition at 0.04 µM", "setting": "[9]", "result": 41.7, "unit": "%"}, {"measurement": "inhibition at 0.04 µM", "setting": "[10]", "result": 41.2, "unit": "%"}, {"measurement": "inhibition at 0.04 µM", "setting": "[11]", "result": -8.6, "unit": "%"}, {"measurement": "Body Weight Change(%) (average / SD)", "setting": "[12]; DS-6051b 3 mg/kg po, day 0, average", "result": 0.0, "unit": "%"}, {"measurement": "Body Weight Change(%) (individual)", "setting": "[12]; DS-6051b 3 mg/kg po, day 0, individual animals", "result": 0, "unit": "%"}, {"measurement": "Body Weight Change(%) (average / SD)", "setting": "[12]; DS-6051b 3 mg/kg po, day 1, average", "result": -1.4, "unit": "%"}, {"measurement": "Body Weight Change(%) (individual)", "setting": "[12]; DS-6051b 3 mg/kg po, day 1, individual animals", "result": "-0.5% and 0.5% and -2.3% and -3.9% and -1.5%"}, {"measurement": "Body Weight Change(%) (average / SD)", "setting": "[12]; DS-6051b 3 mg/kg po, day 2, average", "result": 0.1, "unit": "%"}, {"measurement": "Body Weight Change(%) (individual)", "setting": "[12]; DS-6051b 3 mg/kg po, day 2, individual animals", "result": "0.5% and 3.8% and 1.4% and -3.2% and -0.4% and -1.5%"}, {"measurement": "Body Weight Change(%) (average / SD)", "setting": "[12]; DS-6051b 3 mg/kg po, day 3, average", "result": 0.9, "unit": "%"}, {"measurement": "Body Weight Change(%) (individual)", "setting": "[12]; DS-6051b 3 mg/kg po, day 3, individual animals", "result": "1.9% and 4.3% and 1.4% and -2.7% and 0.4% and 0%"}, {"measurement": "Body Weight Change(%) (average / SD)", "setting": "[12]; DS-6051b 3 mg/kg po, day 4, average", "result": 1.5, "unit": "%"}, {"measurement": "Body Weight Change(%) (individual)", "setting": "[12]; DS-6051b 3 mg/kg po, day 4, individual animals", "result": "1.4% and 4.8% and 2.8% and -2.3% and 0.4% and 2%"}, {"measurement": "Body Weight Change(%) (average / SD)", "setting": "[12]; DS-6051b 10 mg/kg po, day 0, average", "result": 0.0, "unit": "%"}, {"measurement": "Body Weight Change(%) (individual)", "setting": "[12]; DS-6051b 10 mg/kg po, day 0, individual animals", "result": 0, "unit": "%"}, {"measurement": "Body Weight Change(%) (average / SD)", "setting": "[12]; DS-6051b 10 mg/kg po, day 1, average", "result": -2.6, "unit": "%"}, {"measurement": "Body Weight Change(%) (individual)", "setting": "[12]; DS-6051b 10 mg/kg po, day 1, individual animals", "result": "-2.0% and -2.4% and -3.0% and -0.5% and -4.6% and -2.9%"}, {"measurement": "Body Weight Change(%) (average / SD)", "setting": "[12]; DS-6051b 10 mg/kg po, day 2, average", "result": -0.7, "unit": "%"}, {"measurement": "Body Weight Change(%) (individual)", "setting": "[12]; DS-6051b 10 mg/kg po, day 2, individual animals", "result": "0.5% and -1.4% and -0.5% and 2.5% and -1.8% and -3.4%"}, {"measurement": "Body Weight Change(%) (average / SD)", "setting": "[12]; DS-6051b 10 mg/kg po, day 3, average", "result": 0.3, "unit": "%"}, {"measurement": "Body Weight Change(%) (individual)", "setting": "[12]; DS-6051b 10 mg/kg po, day 3, individual animals", "result": "1.5% and -0.5% and 2.5% and -0.9%"}, {"measurement": "Body Weight Change(%) (average / SD)", "setting": "[12]; DS-6051b 10 mg/kg po, day 4, average", "result": -1.0, "unit": "%"}, {"measurement": "Body Weight Change(%) (individual)", "setting": "[12]; DS-6051b 10 mg/kg po, day 4, individual animals", "result": "1.0% and -2.4% and -2.5% and 1.5% and -1.8% and -1.9%"}, {"measurement": "Body Weight Change(%) (average / SD)", "setting": "[12]; DS-6051b 30 mg/kg po, day 0, average", "result": 0.0, "unit": "%"}, {"measurement": "Body Weight Change(%) (individual)", "setting": "[12]; DS-6051b 30 mg/kg po, day 0, individual animals", "result": 0, "unit": "%"}, {"measurement": "Body Weight Change(%) (average / SD)", "setting": "[12]; DS-6051b 30 mg/kg po, day 1, average", "result": -3.0, "unit": "%"}, {"measurement": "Body Weight Change(%) (individual)", "setting": "[12]; DS-6051b 30 mg/kg po, day 1, individual animals", "result": "-1.9% and -2.5% and -2.8% and -3.4% and -2.6% and -5%"}, {"measurement": "Body Weight Change(%) (average / SD)", "setting": "[12]; DS-6051b 30 mg/kg po, day 2, average", "result": -2.1, "unit": "%"}, {"measurement": "Body Weight Change(%) (individual)", "setting": "[12]; DS-6051b 30 mg/kg po, day 2, individual animals", "result": "-2.4% and -1.0% and -2.8% and -1.9% and -2.1% and -2.5%"}, {"measurement": "Body Weight Change(%) (average / SD)", "setting": "[12]; DS-6051b 30 mg/kg po, day 3, average", "result": -2.0, "unit": "%"}, {"measurement": "Body Weight Change(%) (individual)", "setting": "[12]; DS-6051b 30 mg/kg po, day 3, individual animals", "result": "-1.0% and -2.3% and -2.9% and -1.5% and -3%"}, {"measurement": "Body Weight Change(%) (average / SD)", "setting": "[12]; DS-6051b 30 mg/kg po, day 4, average", "result": -3.2, "unit": "%"}, {"measurement": "Body Weight Change(%) (individual)", "setting": "[12]; DS-6051b 30 mg/kg po, day 4, individual animals", "result": "-1.0% and -2.5% and -3.8% and -3.9% and -2.1% and -6%"}, {"measurement": "Body Weight Change(%) (average / SD)", "setting": "[12]; DS-6051b 100 mg/kg po, day 0, average", "result": 0.0, "unit": "%"}, {"measurement": "Body Weight Change(%) (individual)", "setting": "[12]; DS-6051b 100 mg/kg po, day 0, individual animals", "result": 0, "unit": "%"}, {"measurement": "Body Weight Change(%) (average / SD)", "setting": "[12]; DS-6051b 100 mg/kg po, day 1, average", "result": -3.0, "unit": "%"}, {"measurement": "Body Weight Change(%) (individual)", "setting": "[12]; DS-6051b 100 mg/kg po, day 1, individual animals", "result": "-2.9% and -3.5% and -2.3% and -5.8% and -1.8% and -1.5%"}, {"measurement": "Body Weight Change(%) (average / SD)", "setting": "[12]; DS-6051b 100 mg/kg po, day 2, average", "result": -2.4, "unit": "%"}, {"measurement": "Body Weight Change(%) (individual)", "setting": "[12]; DS-6051b 100 mg/kg po, day 2, individual animals", "result": "-2.5% and -1.5% and -3.6% and -3.1% and -2.3%"}, {"measurement": "Body Weight Change(%) (average / SD)", "setting": "[12]; DS-6051b 100 mg/kg po, day 3, average", "result": -3.0, "unit": "%"}]}
